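Method: 48-hour compound exposure of cells in 96-well plates, five concentrations, linear interpolation of endpoints. GI50 = concentration required for 50% inhibition of growth. The concentration for full growth arrest is given as TGI.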 A value given as a limit tells only on which side of the number the result lay.

Some test systems named below: A498 renal; MALME-3M melanoma; SNB-75 CNS; SW-620 colon; UACC-62 melanoma; M14 melanoma; RPMI-8226 leukemia; TK-10 renal.
What all share (assay): inhibition of tumour cell growth, NCI panel, 48 h

As for `Cc1cccc(/C=C/c2c(C(=O)/C=C/c3ccccc3)c(C)nc3ccccc23)c1`, the GI50 with A498 renal was 1.77 µM; in the assay on MALME-3M melanoma it was 1.79 µM; in the assay on SNB-75 CNS, 1.42 µM; in the assay with SW-620 colon, 1.34 µM; in the assay on UACC-62 melanoma, 1.58 µM. The TGI in the assay with A498 renal amounted to 3.26 µM; in the assay with MALME-3M melanoma, 3.2 µM; with SNB-75 CNS it was 2.95 µM; in the assay with SW-620 colon it was 2.98 µM; in the assay on UACC-62 melanoma it was 3.14 µM.
`CCCCCCCCCCCc1nnc(N)o1`: the TGI with M14 melanoma, in the assay on MALME-3M melanoma, in the assay on RPMI-8226 leukemia, with SNB-75 CNS, in the assay with SW-620 colon and with TK-10 renal was above 100 µM each time. Further, the TGI in the assay with UACC-62 melanoma is above 100 µM.
Consider `COc1cc(Br)c(C=Nc2cccc3cc(OC)c(OC)cc23)cc1OC`, for which the TGI is above 100 µM in the assay on M14 melanoma; above 100 µM in the assay on MALME-3M melanoma; above 100 µM with RPMI-8226 leukemia; 59 µM with SNB-75 CNS; above 100 µM with SW-620 colon; above 100 µM with TK-10 renal. This molecule also yielded a TGI with UACC-62 melanoma above 100 µM.
For `O=C(NCCCCNc1cccccc1=O)OCc1ccccc1`, the TGI in the assay on A498 renal, in the assay with M14 melanoma, in the assay with MALME-3M melanoma, in the assay with RPMI-8226 leukemia, in the assay on SNB-75 CNS and in the assay with SW-620 colon was above 100 µM in each case. The TGI in the assay on TK-10 renal and in the assay with UACC-62 melanoma was above 100 µM throughout.
Turning to `O=C(O)CCC(=O)N1c2ccccc2CC1c1c[nH]c2ccccc12` (stereo not drawn), the TGI in the assay on A498 renal, with M14 melanoma, in the assay on MALME-3M melanoma, in the assay on RPMI-8226 leukemia, with SNB-75 CNS and in the assay on SW-620 colon was above 100 µM each time. Besides, the TGI in the assay with TK-10 renal and in the assay on UACC-62 melanoma was above 100 µM throughout.
Consider `COC1=C(N)C(=O)c2nc(C)ccc2C1=O`, for which the TGI with A498 renal was 3.57 µM; with M14 melanoma it was 3.33 µM; in the assay on MALME-3M melanoma, 3.18 µM; with RPMI-8226 leukemia it was above 40.8 µM; in the assay with SNB-75 CNS it was 3.74 µM; in the assay with SW-620 colon, 3.36 µM. In addition, the TGI stood at 16.4 µM in the assay with TK-10 renal and 3.2 µM in the assay with UACC-62 melanoma.
`Cc1nnn[n-]1.N.N.N.N.N.[Cl-].[Co+3]`: the GI50 with A498 renal was 4.14 µM; with M14 melanoma it was above 100 µM; in the assay on MALME-3M melanoma it was above 100 µM; in the assay with RPMI-8226 leukemia, above 100 µM; in the assay with SNB-75 CNS, above 100 µM; in the assay on SW-620 colon, above 100 µM. Moreover, the GI50 in the assay on TK-10 renal and in the assay with UACC-62 melanoma was above 100 µM throughout. For the same molecule, the TGI in the assay with A498 renal was 72 µM; with M14 melanoma, above 100 µM; in the assay on MALME-3M melanoma, above 100 µM; in the assay on RPMI-8226 leukemia, above 100 µM; in the assay with SNB-75 CNS it was above 100 µM; in the assay on SW-620 colon, above 100 µM. Besides, the TGI with TK-10 renal and in the assay with UACC-62 melanoma was above 100 µM each time.
As to `CC1(C)O[C@H]2[C@H](O)C[C@](O)(CO)C[C@H]2O1`, the TGI in the assay with M14 melanoma, in the assay on MALME-3M melanoma, in the assay on RPMI-8226 leukemia, with SNB-75 CNS, with SW-620 colon and in the assay on TK-10 renal was above 100 µM each time. Also, in the assay on UACC-62 melanoma, the TGI is above 100 µM.
On to `CCOC(=O)c1nn2c(nc1=O)sc1ccc3ccccc3c12`, for which the TGI in the assay on M14 melanoma, with MALME-3M melanoma, in the assay with RPMI-8226 leukemia, with SNB-75 CNS, with SW-620 colon and in the assay on TK-10 renal was above 100 µM in each case. For the same molecule, the TGI in the assay on UACC-62 melanoma was above 100 µM.
For `CCN(CC)c1c(C(=O)/C=C/c2ccc(Cl)cc2)c(-c2ccccc2)nn(C)c1=O`, the TGI in the assay on A498 renal was 4.44 µM; in the assay on M14 melanoma it was 4.01 µM; in the assay with MALME-3M melanoma it was 4.35 µM; with RPMI-8226 leukemia it was 5.2 µM; in the assay on SNB-75 CNS, 7.5 µM; in the assay with SW-620 colon, 4.6 µM. Further, the TGI in the assay on TK-10 renal was 4 µM; with UACC-62 melanoma, 3.31 µM.
Consider `O=[N+]([O-])c1ccc(C[P+](c2ccccc2)(c2ccccc2)c2ccccc2)cc1`, for which the TGI with A498 renal, in the assay with M14 melanoma, in the assay with MALME-3M melanoma, with RPMI-8226 leukemia, with SNB-75 CNS and in the assay on SW-620 colon was above 100 µM throughout. The results for the TGI with TK-10 renal and in the assay with UACC-62 melanoma were above 100 µM and 95.6 µM, respectively.
In the case of `CN(O)C(=O)SCC(NC(=O)CCC(N)C(=O)O)C(=O)NCC(=O)O` (stereo not drawn), the GI50 with A498 renal, with M14 melanoma, in the assay on MALME-3M melanoma, with RPMI-8226 leukemia, in the assay with SNB-75 CNS and with TK-10 renal was above 2000 µM throughout. Further, in the assay with UACC-62 melanoma, the GI50 was above 2000 µM. Besides, the TGI in the assay on A498 renal, in the assay with M14 melanoma, in the assay on MALME-3M melanoma, with RPMI-8226 leukemia, in the assay with SNB-75 CNS and with SW-620 colon was above 2000 µM in each case. Besides, the TGI with TK-10 renal and in the assay on UACC-62 melanoma was above 2000 µM throughout.
Turning to `O=C1N(C2CCCCC2)CC12CCCCC2`, the TGI in the assay with A498 renal, in the assay with M14 melanoma, in the assay with MALME-3M melanoma, with RPMI-8226 leukemia, in the assay on SNB-75 CNS and in the assay with SW-620 colon was above 100 µM throughout. Further, the TGI in the assay on TK-10 renal and in the assay on UACC-62 melanoma was above 100 µM in each case.
Regarding `O=C(O)CCCSC(=O)Nc1ccc(N=Nc2ccccc2)cc1`, the TGI in the assay with A498 renal, in the assay on M14 melanoma, in the assay on RPMI-8226 leukemia, in the assay with SW-620 colon, with TK-10 renal and with UACC-62 melanoma was above 100 µM throughout.
